Experimental data as given in the NIST ThermoML archive (doi:10.1021/je100832h).

Assays:
[1] = xn = mol fraction of the nth substance listed; conditions: 101.32 kPa, Liquid, Vibrating tube method
[2] = excess molar enthalpy (molar enthalpy of mixing); xn = mol fraction of the nth substance listed; conditions: 101 kPa, Liquid, Calvet calorimetry

CCCCCCCC [octane] + CCOC(C)=O
Conditions	excess molar enthalpy [kcal/mol]	mass density [kg/m3]
[1], 291.15 K, x2 = 0	–	704.13
[1], 291.15 K, x2 = 0.0296	–	707.15
[1], 291.15 K, x2 = 0.0628	–	710.48
[1], 291.15 K, x2 = 0.1163	–	716.36
[1], 291.15 K, x2 = 0.1605	–	721.46
[1], 291.15 K, x2 = 0.2056	–	727.01
[1], 291.15 K, x2 = 0.2901	–	738.23
[1], 291.15 K, x2 = 0.3723	–	750.35
[1], 291.15 K, x2 = 0.4427	–	761.76
[1], 291.15 K, x2 = 0.5131	–	774.24
[1], 291.15 K, x2 = 0.5744	–	785.94
[1], 291.15 K, x2 = 0.6332	–	798.14
[1], 291.15 K, x2 = 0.6886	–	810.54
[1], 291.15 K, x2 = 0.7414	–	823.25
[1], 291.15 K, x2 = 0.7945	–	836.98
[1], 291.15 K, x2 = 0.84	–	849.83
[1], 291.15 K, x2 = 0.895	–	866.53
[1], 291.15 K, x2 = 0.9304	–	878.05
[1], 291.15 K, x2 = 0.9523	–	885.46
[1], 298.15 K, x2 = 0	–	698.6
[1], 298.15 K, x2 = 0.0485	–	703.3
[1], 298.15 K, x2 = 0.0998	–	708.8
[1], 298.15 K, x2 = 0.1711	–	716.9
[1], 298.15 K, x2 = 0.2518	–	727.02
[1], 298.15 K, x2 = 0.3198	–	736.29
[1], 298.15 K, x2 = 0.3814	–	745.42
[1], 298.15 K, x2 = 0.4622	–	758.48
[1], 298.15 K, x2 = 0.4977	–	764.69
[1], 298.15 K, x2 = 0.5598	–	776.23
[1], 298.15 K, x2 = 0.6548	–	795.8
[1], 298.15 K, x2 = 0.6729	–	799.8
[1], 298.15 K, x2 = 0.6865	–	802.9
[1], 298.15 K, x2 = 0.755	–	819.2
[1], 298.15 K, x2 = 0.7913	–	828.6
[1], 298.15 K, x2 = 0.8335	–	840.2
[1], 298.15 K, x2 = 0.8686	–	850.5
[1], 298.15 K, x2 = 0.9039	–	861.4
[1], 298.15 K, x2 = 0.9578	–	879.3
[1], 318.15 K, x2 = 0	–	682.16
[1], 318.15 K, x2 = 0.034	–	685.37
[1], 318.15 K, x2 = 0.108	–	692.6
[1], 318.15 K, x2 = 0.1961	–	702.19
[1], 318.15 K, x2 = 0.2859	–	713.24
[1], 318.15 K, x2 = 0.3635	–	723.8
[1], 318.15 K, x2 = 0.4203	–	732.23
[1], 318.15 K, x2 = 0.4875	–	743.04
[1], 318.15 K, x2 = 0.5678	–	757.24
[1], 318.15 K, x2 = 0.6088	–	765.1
[1], 318.15 K, x2 = 0.6633	–	776.23
[1], 318.15 K, x2 = 0.7123	–	786.92
[1], 318.15 K, x2 = 0.764	–	799.14
[1], 318.15 K, x2 = 0.8086	–	810.54
[1], 318.15 K, x2 = 0.8487	–	821.51
[1], 318.15 K, x2 = 0.8943	–	834.53
[1], 318.15 K, x2 = 0.932	–	846.34
[1], 318.15 K, x2 = 0.9762	–	860.93
[1], 328.15 K, x2 = 0	–	674.15
[1], 328.15 K, x2 = 0.0441	–	678
[1], 328.15 K, x2 = 0.1138	–	684.7
[1], 328.15 K, x2 = 0.2084	–	694.85
[1], 328.15 K, x2 = 0.2915	–	704.8
[1], 328.15 K, x2 = 0.3741	–	715.9
[1], 328.15 K, x2 = 0.4415	–	725.91
[1], 328.15 K, x2 = 0.5234	–	739.31
[1], 328.15 K, x2 = 0.5735	–	748.22
[1], 328.15 K, x2 = 0.6354	–	760.07
[1], 328.15 K, x2 = 0.6861	–	770.65
[1], 328.15 K, x2 = 0.7435	–	783.45
[1], 328.15 K, x2 = 0.7958	–	796.07
[1], 328.15 K, x2 = 0.8407	–	807.86
[1], 328.15 K, x2 = 0.8822	–	819.28
[1], 328.15 K, x2 = 0.927	–	832.83
[1], 328.15 K, x2 = 0.9737	–	848.01
[2], 291.15 K, x2 = 0.0994	0.146	–
[2], 291.15 K, x2 = 0.1715	0.23	–
[2], 291.15 K, x2 = 0.254	0.303	–
[2], 291.15 K, x2 = 0.3369	0.355	–
[2], 291.15 K, x2 = 0.4081	0.383	–
[2], 291.15 K, x2 = 0.474	0.399	–
[2], 291.15 K, x2 = 0.5317	0.4	–
[2], 291.15 K, x2 = 0.5698	0.392	–
[2], 291.15 K, x2 = 0.5955	0.386	–
[2], 291.15 K, x2 = 0.6441	0.371	–
[2], 291.15 K, x2 = 0.6953	0.344	–
[2], 291.15 K, x2 = 0.7435	0.313	–
[2], 291.15 K, x2 = 0.7996	0.272	–
[2], 291.15 K, x2 = 0.853	0.226	–
[2], 291.15 K, x2 = 0.8967	0.176	–
[2], 291.15 K, x2 = 0.9435	0.118	–
[2], 291.15 K, x2 = 0.981	0.0581	–
[2], 298.15 K, x2 = 0.0774	0.102	–
[2], 298.15 K, x2 = 0.1517	0.178	–
[2], 298.15 K, x2 = 0.2198	0.243	–
[2], 298.15 K, x2 = 0.2861	0.293	–
[2], 298.15 K, x2 = 0.3374	0.326	–
[2], 298.15 K, x2 = 0.3769	0.352	–
[2], 298.15 K, x2 = 0.4335	0.377	–
[2], 298.15 K, x2 = 0.4856	0.384	–
[2], 298.15 K, x2 = 0.5281	0.383	–
[2], 298.15 K, x2 = 0.5773	0.38	–
[2], 298.15 K, x2 = 0.6255	0.371	–
[2], 298.15 K, x2 = 0.6736	0.351	–
[2], 298.15 K, x2 = 0.7261	0.325	–
[2], 298.15 K, x2 = 0.7729	0.292	–
[2], 298.15 K, x2 = 0.8276	0.246	–
[2], 298.15 K, x2 = 0.8796	0.191	–
[2], 298.15 K, x2 = 0.9202	0.129	–
[2], 298.15 K, x2 = 0.9644	0.0648	–
[2], 318.15 K, x2 = 0.0832	0.111	–
[2], 318.15 K, x2 = 0.1591	0.195	–
[2], 318.15 K, x2 = 0.2322	0.267	–
[2], 318.15 K, x2 = 0.3009	0.319	–
[2], 318.15 K, x2 = 0.3637	0.353	–
[2], 318.15 K, x2 = 0.4184	0.374	–
[2], 318.15 K, x2 = 0.4655	0.384	–
[2], 318.15 K, x2 = 0.5112	0.388	–
[2], 318.15 K, x2 = 0.5525	0.386	–
[2], 318.15 K, x2 = 0.5886	0.382	–
[2], 318.15 K, x2 = 0.6324	0.371	–
[2], 318.15 K, x2 = 0.6807	0.355	–
[2], 318.15 K, x2 = 0.7307	0.328	–
[2], 318.15 K, x2 = 0.7788	0.293	–
[2], 318.15 K, x2 = 0.8291	0.248	–
[2], 318.15 K, x2 = 0.8801	0.192	–
[2], 318.15 K, x2 = 0.9259	0.13	–
[2], 318.15 K, x2 = 0.9646	0.0667	–
